We go through two molecules from ChEMBL document CHEMBL4312034, “Virtual screening-driven discovery of dual 5-HT6/5-HT2A receptor ligands with pro-cognitive properties” (Eur J Med Chem, 2020).

Calls of active or inactive are those of the source. The calls are words filed in the database; no cut-off is given here.

In data set [1] the target is 5-hydroxytryptamine receptor 7 (Homo sapiens, UniProt P34969). Briefly: Displacement of [3H]-CT from human 5-HT7 receptor expressed in HEK293 cells after 1 hr by microbeta plate reader analysis. In kind it is cell-based. For orientation: Loss of bound radioactivity is the signal in a displacement assay; it reports binding, not function.
For data set [2], the target named is D(2) dopamine receptor (Homo sapiens, UniProt P14416). Briefly: Displacement of [3H]-raclopride from human D2R expressed in HEK293 cells after 1 hr by microbeta plate reader analysis. The format is cell-based.
Data set [3] in a line: Half life in rat liver microsomes up to 60 mins by HPLC-LC/MS analysis. On the technique in general: Microsomes from liver hold many membrane-bound enzymes, among them those of drug oxidation.
Data set [4] has as its target T1, 5-hydroxytryptamine receptor 1A (Homo sapiens, UniProt P08908).
T1 sequence (P08908 whole entry): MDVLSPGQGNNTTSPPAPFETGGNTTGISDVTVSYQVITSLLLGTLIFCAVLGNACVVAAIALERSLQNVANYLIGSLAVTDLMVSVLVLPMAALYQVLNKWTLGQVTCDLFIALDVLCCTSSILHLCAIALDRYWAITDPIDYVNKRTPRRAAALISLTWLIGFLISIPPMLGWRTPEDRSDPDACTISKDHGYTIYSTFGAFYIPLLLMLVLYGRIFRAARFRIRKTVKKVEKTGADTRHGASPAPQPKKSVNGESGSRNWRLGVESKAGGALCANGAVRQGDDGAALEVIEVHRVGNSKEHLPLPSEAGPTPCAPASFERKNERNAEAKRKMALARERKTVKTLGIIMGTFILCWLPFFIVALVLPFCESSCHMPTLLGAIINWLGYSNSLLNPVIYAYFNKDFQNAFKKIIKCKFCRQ
The data set can be described thus: Displacement of [3H]-8-OH-DPAT from human 5-HT1A receptor expressed in HEK293 cells after 1 hr by microbeta plate reader analysis. In kind it is cell-based.

Data set [5] has as its target T2, 5-hydroxytryptamine receptor 6 (Homo sapiens, UniProt P50406). The data set can be described thus: Displacement of [3H]-LSD from human 5-HT6R expressed in HEK293 cells after 1 hr by microbeta plate reader analysis. The format is cell-based.
Data set [6] in a line: in vitro. The note with it: rat.
Data set [7] has as its target T3, 5-hydroxytryptamine receptor 2A (Homo sapiens, UniProt P28223). The data set can be described thus: Binding affinity to human 5-HT2AR expressed in HEK293 cells by competitive binding assay. The format is cell-based.
Data set [8] deals with T4, 5-HT2C receptor (Homo sapiens, UniProt P28335).
T4 sequence (P28335 whole entry): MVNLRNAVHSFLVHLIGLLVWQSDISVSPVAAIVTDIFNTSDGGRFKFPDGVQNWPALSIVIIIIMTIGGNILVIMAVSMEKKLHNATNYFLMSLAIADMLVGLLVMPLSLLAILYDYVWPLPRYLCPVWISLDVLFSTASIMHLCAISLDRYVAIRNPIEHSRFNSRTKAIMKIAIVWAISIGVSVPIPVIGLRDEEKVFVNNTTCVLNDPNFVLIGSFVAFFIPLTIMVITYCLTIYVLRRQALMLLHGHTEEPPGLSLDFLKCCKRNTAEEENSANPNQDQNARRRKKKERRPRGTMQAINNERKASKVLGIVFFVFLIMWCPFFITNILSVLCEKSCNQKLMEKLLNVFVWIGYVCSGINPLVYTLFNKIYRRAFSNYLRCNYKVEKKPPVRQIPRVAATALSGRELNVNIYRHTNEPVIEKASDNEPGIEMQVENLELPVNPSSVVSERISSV
Briefly: Inhibition of 5-HT2C receptor (unknown origin) at 10^-6 M relative to control.

For data set [9], the system named is HepG2. The data set can be described thus: Cytotoxicity against human HepG2 cells assessed as reduction in cell viability after 24 hrs by presto-blue assay. The note with it: HepG2, 24 h.
The target in data set [10] is T5, P-gp (ABCB1) (Homo sapiens, UniProt P08183). Briefly: Substrate activity at Pgp (unknown origin) assessed as permeability from basolateral to apical side by cell based assay. The format is ADME. The note with it: not told.
The target in data set [11] is Cytochrome P450 2D6 (Homo sapiens, UniProt P10635). The data set can be described thus: Inhibition of human CYP2D6 preincubated for 5 mins followed by NADPH addition and measured after 45 mins by luminescence based microplate reader analysis. In kind it is ADME.
Data set [12] has as its target T3, 5-hydroxytryptamine receptor 2A. The data set can be described thus: Displacement of [3H]-Ketanserin from recombinant human 5-HT2A receptor at 10^-7 M after 60 mins by radiometric scintillation counting analysis relative to control.
In data set [13] the target is T5, P-gp (ABCB1). The data set can be described thus: Substrate activity at Pgp (unknown origin) assessed as permeability from apical to basolateral side by cell based assay. The note with it: not told. In kind it is ADME.
Data set [14] has as its target hERG (KCNH2) (Homo sapiens, UniProt Q12809). The data set can be described thus: Inhibition of human ERG at 10^-6 M relative to control.
Data set [15] has as its target T3, 5-hydroxytryptamine receptor 2A. The data set can be described thus: Displacement of [3H]-Ketanserin from recombinant human 5-HT2A receptor at 10^-6 M after 60 mins by radiometric scintillation counting analysis relative to control.
In data set [16] the test system is Rattus norvegicus. The data set can be described thus: Reversal of phencyclidine-induced memory impairment in Sprague-Dawley rat at 3 to 10 mg/kg, po for 2 hrs followed by phencyclidine treatment 45 mins prior to testing by novel object recognition test. In kind it is functional, organism-based.
For data set [17], the target named is Cytochrome P450 3A4 (Homo sapiens, UniProt P08684). Briefly: Inhibition of human CYP3A4 preincubated for 5 mins followed by NADPH addition and measured after 30 mins by luminescence based microplate reader analysis. The format is ADME.
The nature of data set [18]: Mutagenicity in Salmonella typhimurium TA100 at 1 to 10 uM incubated for 90 mins followed by replating on medium without histidine and measured after 72 hrs by Ames test. The format is toxicity. The note with it: salmonella enterica subsp. enterica serovar typhimurium. On the technique in general: In the Ames test, an excess of revertant colonies over the control signals mutagenicity.

Data set [19] deals with HepG2. The data set can be described thus: Cytotoxicity against human HepG2 cells after 24 hrs by ToxiLight bioassay. The note with it: HepG2, 24 h.
Data set [20] concerns the target Histamine H1 receptor (Homo sapiens) (UniProt P35367). Briefly: Displacement of [3H]pyrilamine from recombinant human H1 receptor at 10^-6 M after 60 mins by radiometric scintillation counting analysis relative to control.
For data set [21], the target named is 5-hydroxytryptamine receptor 2B (Homo sapiens) (UniProt P41595). Briefly: Displacement of [3H]-Mesulergine from recombinant human 5-HT2B receptor at 10^-6 M after 60 mins by radiometric scintillation analysis relative to control.
Data set [22] is described as follows: Ratio of Cmax in brain to plasma in Wistar rat at 10 mg/kg, po. In kind it is ADME, organism-based. The note with it: read-out: BPR.
Data set [23] has as its target T4, 5-HT2C receptor. Briefly: Antagonist activity at 5-HT2CR (unknown origin) at 10^-6 M relative to control.
Data set [24] concerns the target T6, Alpha-1A adrenergic receptor (Homo sapiens) (UniProt P35348).
T6 sequence (whole entry): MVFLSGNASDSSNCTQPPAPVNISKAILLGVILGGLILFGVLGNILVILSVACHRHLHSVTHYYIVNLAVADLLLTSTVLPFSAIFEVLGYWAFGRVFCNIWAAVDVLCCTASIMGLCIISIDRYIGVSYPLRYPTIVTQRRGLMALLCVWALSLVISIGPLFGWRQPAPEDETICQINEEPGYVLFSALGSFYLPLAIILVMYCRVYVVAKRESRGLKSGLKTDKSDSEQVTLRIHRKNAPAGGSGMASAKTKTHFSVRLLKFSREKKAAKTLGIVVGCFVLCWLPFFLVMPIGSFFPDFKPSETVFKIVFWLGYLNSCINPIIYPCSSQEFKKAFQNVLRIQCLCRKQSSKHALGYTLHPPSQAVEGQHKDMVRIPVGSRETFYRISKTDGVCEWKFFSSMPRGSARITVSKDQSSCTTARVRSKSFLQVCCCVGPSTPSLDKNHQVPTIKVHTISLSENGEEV
Briefly: Displacement of [3H]prazosin from recombinant human alpha 1A adreno receptor at 10^-6 M after 60 mins by radiometric scintillation counting analysis relative to control.

The target in data set [25] is T7, Muscarinic acetylcholine receptor M1 (Homo sapiens) (UniProt P11229).
T7 sequence (whole entry): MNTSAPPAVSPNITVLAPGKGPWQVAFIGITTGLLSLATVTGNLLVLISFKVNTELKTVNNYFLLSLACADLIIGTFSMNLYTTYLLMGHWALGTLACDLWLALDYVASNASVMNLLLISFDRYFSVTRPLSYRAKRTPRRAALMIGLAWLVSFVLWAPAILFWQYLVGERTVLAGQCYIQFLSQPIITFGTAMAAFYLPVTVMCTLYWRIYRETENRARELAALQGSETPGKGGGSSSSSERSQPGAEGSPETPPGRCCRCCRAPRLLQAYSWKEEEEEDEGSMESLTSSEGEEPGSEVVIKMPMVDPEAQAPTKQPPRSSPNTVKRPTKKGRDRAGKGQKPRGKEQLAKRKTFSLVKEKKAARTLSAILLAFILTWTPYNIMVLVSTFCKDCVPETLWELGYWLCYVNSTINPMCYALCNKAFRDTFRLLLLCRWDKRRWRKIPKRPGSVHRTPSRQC
Briefly: Displacement of [3H]pyrilamine from recombinant human M1 receptor at 10^-6 M after 60 mins by radiometric scintillation counting analysis relative to control.

Data set [26] has as its target T2, 5-hydroxytryptamine receptor 6. The data set can be described thus: Antagonist activity at human 5-HT6 receptor expressed in HEK293 cells assessed as inhibition of 5-CT induced cAMP production incubated for 30 mins by TR-FRET assay. In kind it is functional, cell-based.

T3 sequence (P28223 whole entry): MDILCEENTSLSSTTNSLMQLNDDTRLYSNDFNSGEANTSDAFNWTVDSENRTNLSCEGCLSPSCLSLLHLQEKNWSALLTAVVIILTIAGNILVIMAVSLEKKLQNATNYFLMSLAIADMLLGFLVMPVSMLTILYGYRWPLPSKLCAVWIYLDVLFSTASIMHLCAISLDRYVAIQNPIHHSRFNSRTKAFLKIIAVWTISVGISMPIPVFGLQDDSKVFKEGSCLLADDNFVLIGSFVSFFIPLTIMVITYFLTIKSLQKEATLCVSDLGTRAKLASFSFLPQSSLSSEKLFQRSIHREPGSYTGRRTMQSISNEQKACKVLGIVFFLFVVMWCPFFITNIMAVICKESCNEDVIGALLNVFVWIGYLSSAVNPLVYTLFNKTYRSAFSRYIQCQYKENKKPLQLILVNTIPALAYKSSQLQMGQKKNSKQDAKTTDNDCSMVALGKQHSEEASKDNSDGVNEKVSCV
T2 sequence (P50406 whole entry): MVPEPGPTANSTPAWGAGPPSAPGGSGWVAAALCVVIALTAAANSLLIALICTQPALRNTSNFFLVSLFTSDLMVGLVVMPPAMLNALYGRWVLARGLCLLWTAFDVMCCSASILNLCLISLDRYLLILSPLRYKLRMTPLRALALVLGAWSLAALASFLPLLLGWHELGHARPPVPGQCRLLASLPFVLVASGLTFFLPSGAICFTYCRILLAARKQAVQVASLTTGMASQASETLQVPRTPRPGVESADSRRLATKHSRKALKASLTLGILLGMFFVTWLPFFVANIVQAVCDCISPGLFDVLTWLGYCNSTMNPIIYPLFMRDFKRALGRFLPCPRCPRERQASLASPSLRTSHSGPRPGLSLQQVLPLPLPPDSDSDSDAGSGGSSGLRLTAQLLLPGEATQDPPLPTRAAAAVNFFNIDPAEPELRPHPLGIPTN
T5 sequence (P08183 whole entry): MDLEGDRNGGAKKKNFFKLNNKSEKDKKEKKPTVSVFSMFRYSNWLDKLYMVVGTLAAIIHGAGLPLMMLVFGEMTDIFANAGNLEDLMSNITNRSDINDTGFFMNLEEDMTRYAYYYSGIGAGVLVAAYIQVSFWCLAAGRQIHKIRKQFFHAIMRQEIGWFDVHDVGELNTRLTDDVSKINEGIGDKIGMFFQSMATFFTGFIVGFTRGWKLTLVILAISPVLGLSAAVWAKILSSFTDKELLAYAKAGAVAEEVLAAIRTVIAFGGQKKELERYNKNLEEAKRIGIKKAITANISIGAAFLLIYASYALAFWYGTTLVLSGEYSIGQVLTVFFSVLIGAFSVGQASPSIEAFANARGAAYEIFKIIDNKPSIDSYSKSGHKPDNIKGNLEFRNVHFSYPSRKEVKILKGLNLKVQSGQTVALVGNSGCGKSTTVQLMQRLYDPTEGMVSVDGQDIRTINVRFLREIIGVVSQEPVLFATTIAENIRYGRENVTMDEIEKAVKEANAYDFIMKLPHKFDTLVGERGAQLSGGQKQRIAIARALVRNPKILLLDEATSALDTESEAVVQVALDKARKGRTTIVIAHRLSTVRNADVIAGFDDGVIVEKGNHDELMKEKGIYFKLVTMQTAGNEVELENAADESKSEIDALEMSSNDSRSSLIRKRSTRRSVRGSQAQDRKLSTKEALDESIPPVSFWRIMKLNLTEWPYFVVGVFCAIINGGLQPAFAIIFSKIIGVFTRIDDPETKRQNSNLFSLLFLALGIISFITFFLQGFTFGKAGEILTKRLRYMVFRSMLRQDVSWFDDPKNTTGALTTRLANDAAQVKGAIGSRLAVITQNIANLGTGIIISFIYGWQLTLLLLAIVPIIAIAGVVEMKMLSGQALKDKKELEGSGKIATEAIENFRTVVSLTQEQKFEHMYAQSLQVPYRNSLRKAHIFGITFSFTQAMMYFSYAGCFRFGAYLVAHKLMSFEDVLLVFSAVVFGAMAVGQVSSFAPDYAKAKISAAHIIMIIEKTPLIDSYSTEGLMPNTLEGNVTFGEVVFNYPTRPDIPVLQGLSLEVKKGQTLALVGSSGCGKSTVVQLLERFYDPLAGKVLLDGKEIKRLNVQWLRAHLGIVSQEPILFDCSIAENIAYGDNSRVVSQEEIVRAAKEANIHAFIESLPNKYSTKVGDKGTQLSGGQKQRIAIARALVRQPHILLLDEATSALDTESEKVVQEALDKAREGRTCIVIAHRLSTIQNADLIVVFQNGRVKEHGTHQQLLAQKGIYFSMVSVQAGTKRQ
Chain of 5-hydroxytryptamine receptor 7 (P34969 whole entry): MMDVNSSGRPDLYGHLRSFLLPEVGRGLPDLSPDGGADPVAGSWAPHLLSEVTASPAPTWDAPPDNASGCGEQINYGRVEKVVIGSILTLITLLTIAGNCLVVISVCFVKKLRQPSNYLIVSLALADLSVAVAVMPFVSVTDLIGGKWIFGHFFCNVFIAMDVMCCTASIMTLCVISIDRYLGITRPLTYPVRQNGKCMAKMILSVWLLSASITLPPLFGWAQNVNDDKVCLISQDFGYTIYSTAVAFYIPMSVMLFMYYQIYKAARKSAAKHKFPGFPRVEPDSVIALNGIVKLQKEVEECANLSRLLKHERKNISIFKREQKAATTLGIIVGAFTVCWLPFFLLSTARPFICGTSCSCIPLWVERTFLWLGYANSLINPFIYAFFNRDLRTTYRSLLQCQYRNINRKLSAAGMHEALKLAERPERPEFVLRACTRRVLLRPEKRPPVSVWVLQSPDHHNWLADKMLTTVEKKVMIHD
Chain of hERG (KCNH2) (Q12809 whole entry): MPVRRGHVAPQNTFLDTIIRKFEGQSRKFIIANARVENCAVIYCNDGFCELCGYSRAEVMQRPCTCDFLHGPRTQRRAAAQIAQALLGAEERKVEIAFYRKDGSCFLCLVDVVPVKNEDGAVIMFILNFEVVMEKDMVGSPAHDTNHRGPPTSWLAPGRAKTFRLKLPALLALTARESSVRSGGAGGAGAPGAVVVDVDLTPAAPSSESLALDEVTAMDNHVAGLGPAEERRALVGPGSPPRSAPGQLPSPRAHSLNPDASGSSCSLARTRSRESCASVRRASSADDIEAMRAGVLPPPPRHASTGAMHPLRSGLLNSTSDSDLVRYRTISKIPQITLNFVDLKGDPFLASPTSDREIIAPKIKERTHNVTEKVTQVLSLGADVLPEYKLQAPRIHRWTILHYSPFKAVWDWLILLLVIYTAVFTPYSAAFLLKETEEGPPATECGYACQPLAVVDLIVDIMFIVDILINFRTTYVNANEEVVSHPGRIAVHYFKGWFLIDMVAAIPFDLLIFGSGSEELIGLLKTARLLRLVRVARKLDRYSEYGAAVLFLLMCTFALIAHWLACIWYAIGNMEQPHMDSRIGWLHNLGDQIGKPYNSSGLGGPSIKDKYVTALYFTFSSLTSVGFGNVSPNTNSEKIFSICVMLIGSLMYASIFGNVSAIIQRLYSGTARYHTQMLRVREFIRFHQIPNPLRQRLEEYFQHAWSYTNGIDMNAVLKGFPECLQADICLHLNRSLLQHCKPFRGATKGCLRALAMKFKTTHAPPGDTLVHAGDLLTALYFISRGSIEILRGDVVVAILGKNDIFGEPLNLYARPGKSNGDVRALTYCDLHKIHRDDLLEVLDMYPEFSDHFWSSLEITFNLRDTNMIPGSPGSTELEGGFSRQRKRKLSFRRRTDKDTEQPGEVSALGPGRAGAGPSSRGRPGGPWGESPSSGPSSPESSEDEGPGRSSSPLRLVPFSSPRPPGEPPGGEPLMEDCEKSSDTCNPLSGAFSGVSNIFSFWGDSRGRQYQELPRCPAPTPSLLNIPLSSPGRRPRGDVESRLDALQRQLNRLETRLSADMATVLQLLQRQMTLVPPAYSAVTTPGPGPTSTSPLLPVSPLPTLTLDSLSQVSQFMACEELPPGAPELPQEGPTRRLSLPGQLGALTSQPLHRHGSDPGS
Chain of Histamine H1 receptor (Homo sapiens) (P35367 whole entry): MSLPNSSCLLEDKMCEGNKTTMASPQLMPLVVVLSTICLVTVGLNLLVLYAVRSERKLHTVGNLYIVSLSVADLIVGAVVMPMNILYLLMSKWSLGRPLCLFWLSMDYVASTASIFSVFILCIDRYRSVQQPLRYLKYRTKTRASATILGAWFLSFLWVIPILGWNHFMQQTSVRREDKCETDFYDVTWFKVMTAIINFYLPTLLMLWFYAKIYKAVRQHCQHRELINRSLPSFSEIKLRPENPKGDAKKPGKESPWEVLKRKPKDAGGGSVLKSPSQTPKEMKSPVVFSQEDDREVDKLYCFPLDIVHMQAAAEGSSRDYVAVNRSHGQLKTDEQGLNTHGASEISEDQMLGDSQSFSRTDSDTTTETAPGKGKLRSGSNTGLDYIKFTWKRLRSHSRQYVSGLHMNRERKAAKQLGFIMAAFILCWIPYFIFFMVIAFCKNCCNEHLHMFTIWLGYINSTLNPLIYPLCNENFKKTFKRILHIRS
Chain of D(2) dopamine receptor (P14416 whole entry): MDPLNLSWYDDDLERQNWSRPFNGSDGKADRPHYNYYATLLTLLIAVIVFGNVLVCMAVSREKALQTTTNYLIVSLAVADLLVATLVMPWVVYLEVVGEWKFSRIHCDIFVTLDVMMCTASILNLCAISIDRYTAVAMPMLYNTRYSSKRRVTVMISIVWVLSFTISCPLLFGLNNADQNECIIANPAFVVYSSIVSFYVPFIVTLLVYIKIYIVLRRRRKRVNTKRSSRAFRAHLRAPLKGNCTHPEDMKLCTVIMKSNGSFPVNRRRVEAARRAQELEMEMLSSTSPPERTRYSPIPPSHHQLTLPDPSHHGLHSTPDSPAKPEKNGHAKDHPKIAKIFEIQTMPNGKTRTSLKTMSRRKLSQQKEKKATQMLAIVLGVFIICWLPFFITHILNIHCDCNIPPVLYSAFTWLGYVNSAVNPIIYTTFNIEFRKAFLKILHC

What is called Ki is the dissociation constant of the complex between target and ligand, obtained from inhibition or displacement. Broadly, the half-life is the time in which the quantity being followed falls by half. The microsomal CLint is a measure of how fast metabolising enzymes remove a compound, apart from limits set by blood flow. Low readings indicate slow turnover, high ones rapid turnover. In general, inhibition refers to the change of the read-out against control, counted positive when it falls. Consider `Oc1ccc(-c2ccc(CNCCc3c[nH]c4ccc(F)cc34)o2)cc1`, for which the Ki amounted to 0.895 µM in [1]; 0.376 µM in [2]; 1.01 µM in data set [4]; 0.002 µM in [5]; 0.011 µM in [7]. This molecule also had a half-life at 1 h in data set [3] (microsomes) of 6 min. In addition, in data set [6] (microsomes), the microsomal CLint at 1 h is 251 µL/min/mg. Moreover, in [8], the inhibition at 1 µM worked out at 99%.
As usually defined, the IC50 is the concentration that gives 50% inhibition. For orientation: Papp B→A means how fast a substance crosses the layer from the basolateral side. The term Papp A→B denotes the apparent permeability from the apical to the basolateral side of a cell layer. What is called Kb is the equilibrium dissociation constant of an antagonist, usually derived from a functional assay. On to `Oc1ccc(-c2ccc(CNCCc3c[nH]c4ncc(F)cc34)o2)cc1`, for which the IC50 in data set [9] is 5.14 µM; in [11] it was 8.4 µM; in [17] it was 7.8 µM; in data set [19], 6.2 µM. Also, the Papp B→A in data set [10] turned out to be 3.43 ×10⁻⁶ cm/s. Further, the inhibition in data set [12] is 19.1%; in [15], 8.9%; in [20] it was 3.2%; in data set [21] it was -1.3%; in data set [24], 35.5%; in data set [25], 4%. The Ki in data set [1] amounted to 13.8 µM; in [4], 6.2 µM; in data set [5], 0.025 µM; in data set [7], 0.032 µM. Moreover, in [13], the Papp A→B was determined as 8.87 ×10⁻⁶ cm/s. The figures for the inhibition at 1 µM in data set [14] and in data set [23] were 42.2% and 59.9%, respectively. In data set [16], the result was Active. In addition, the Activity result in [18] is reported as “Non-Toxic”. For the same molecule, the half-life at 1 h in [3] (liver microsomes) was 14 min. Also, the Kp in data set [22] was 0.7. Also, the microsomal CLint at 1 h in data set [6] (liver microsomes) turned out to be 103 µL/min/mg. The Kb in data set [26] was 0.027 µM.
